{"source": "patent US11369665B2", "about": "“Anti-inflammatory peptides and composition comprising the same” (GemVax & KAEL Co., Ltd., priority 2012, dated 2022)", "key": {"amyloid-β protein": {"target": "T1, amyloid-β protein (Homo sapiens, UniProt P05067)", "T1 construct": "co-treated with 1 μM amyloid beta protein and PEP 1 (0.1, 1 and 10 μM)", "T1 sequence (P05067 672-713 limits assumed)": "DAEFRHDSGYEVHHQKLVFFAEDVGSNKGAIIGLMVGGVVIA", "test": "Amyloid-β aggregation", "format": "biochemical", "source_text": "In addition, we investigated the response of PEP-1 to the amyloid-β aggregation."}, "cytokines": {"tested_on": "cytokines", "test": "qRT-PCR of cytokine levels in THP1 cell line", "format": "cell-based, human", "conditions": "PMA-differentiated THP-1, LPS 10 ng/ml and 4 μM peptide, 4 hr, FIG. 3", "description": "As a Human acute monocytic leukemia cell line, THP-1 monocyte cell line ([…] TYPE CULTURE COLLECTION® (Manassas, Va., USA) was used to reconfirm the effects of PEP 1. Cells were grown at a density of 0.5-7×10^5 cells/mL in RPMI 1640 containing 10% FBS, 0.05 mM 2-mercaptoethanol, 100 U/ml penicillin, 100 μg/mL streptomycin, and maintained at 37° C. under 5% CO2. THP-1 cells were differentiated into macrophages by treating cells with phorbol myristate acetate (PMA) at 100 ng/mL for 24 hr at 37° C. for 24 hr.\nFollowing differentiation into macrophages, THP-1 cells were washed two times using complete RPMI 1640 (5 min/wash). Then, cells were treated for 4 hr. with 10 ng/ml LPS and/or 4 μM peptide RIA in FBS free RPMI 1640.\nTotal RNA samples were isolated from peptide-treated THP-1 cells by using Trizol (QIAZOL®) reagent and, and cDNA was synthesized by reverse transcriptase PCR using reverse transcription PCR kit from PROMEGA CORPORATION® following manufacturer's protocol.\nThen, real-Time qPCR was performed using CFX96 (BIO-RAD®) instrument with SYBR® Green qPCR system. Primers used in the experiments are found in Table 5. The PCR cycling conditions were 95° C. for 10 min for activation of HotStart DNA Taq Polymerase, followed by 45 cycles of 95° C. for 10 sec. […] All samples were measured in triplicate and differences in gene expression were calculated using the 2-cycle threshold method. […]"}, "nitric oxide (NO)": {"tested_on": "nitric oxide (NO)", "test": "NO level analysis (Griess reagent) in LPS-stimulated Raw 264.7 cells", "format": "cell-based", "description": "(§1) Raw 264.7 macrophage cell (KCBL, 40071) from Korea Cell Bank was maintained in Dulbecco's modified Eagle's medium (DMEM; PAA, Austria) containing 10% fetal bovine serum (FBS; GIBCO®), 100 unit/mL of streptomycin, and penicillin (Gibco Laboratories) at 37° C. with 5% CO2. Raw 264.7 cells were seeded into a 96-well plate at a density of 1×10^6 cells/mL and incubated overnight.\n[…] After 30 min incubation of cells with the peptide 50 μL of LPS (to a final concentration of 1 μg/mL) was added, and cells were incubated for additional 24 hr. The experimental sample with the induction of inflammatory response was treated with 1 μg/mL mL lipopolysaccharide (LPS; SIGMA-ALDRICH®, USA) and control sample was treated with phosphate buffered saline (PBS; pH 7.2). The supernatant samples from each condition was collected in eppendorf tubes and subjected to further analysis.\nThe level of nitric oxide (NO) was measured in Raw 264.7 cell (1×10^6 cell/ml) using Griess reagent system (PROMEGA CORPORATION®, USA). Culture medium of 50 μl was added to a 96-well plate and Griess reagent I (NED) solution and Griess reagent II (Sulfanilamide solution) are added in the same amount. After 10 min incubation of cells with the reagents, the optical density at 540 nm was measured within 30 min using a microplate reader (MOLECULAR DEVICES®, USA). The concentration of NO was calculated by using a standard curve (0˜100 μM) of sodium nitrite."}, "HMGB1, TNF-α and COX": {"tested_on": "HMGB1, TNF-α and COX", "test": "Western blot of pro-inflammatory cytokine expression", "format": "cell-based", "conditions": "cells treated with both LPS and PEP-1", "description": "as §1\nOn the following day, the medium was replaced with fresh medium and 5 μg/mL of peptide (obtained as described in Experiment example 1) was added to the cells. After 30 min incubation of cells with the peptide 50 μL of LPS (to a final concentration of 1 μg/mL) was added, and cells were incubated for additional 24 hr. The experimental sample with the induction of inflammatory response was treated with 1 μg/mL mL lipopolysaccharide (LPS; SIGMA-ALDRICH®, USA) and control sample was treated with phosphate buffered saline (PBS; pH 7.2). The supernatant samples from each condition was collected in eppendorf tubes and subjected to further analysis.\nProtein expression level was determined by Western blot analysis. […] The membrane was incubated with ECL (enhanced chemiluminoesence) solution ([…]®), exposed to X-ray, and the level of protein expression was analyzed according to the exposure level shown on the X-ray film. […]"}, "neural stem cells": {"tested_on": "neural stem cells", "test": "Co-treatment amyloid-β and PEP-1: proliferation (BrdU assay)", "format": "cell-based, rat", "conditions": "20 μM amyloid-β protein, co-treated 48 hours", "description": "To determine whether PEP 1 has the effect of suppressing the neurotoxicity caused by amyloid-β protein, 20 μM amyloid-β protein and various concentrations of PEP-1 were co-treated for 48 hours. The cell viability and apoptosis were measured using MMT assay, CCK-8 assay, LDH assay and TUNEL assay, and neural stem cell proliferation by BrdU assay.\nWe also confirmed with BrdU assay that the decreased cell proliferation due to amyloid-β protein was restored when processed with PEP-1 (Refer to FIG. 10)."}, "[1]": {"conditions": "LPS 1 μg/mL, PEP 1 0.5 μg/mL, 24 hr"}}}
{"sequence": "EARPALLTSRLRFIPK [PEP-1]", "values": [{"measurement": "aggregation of amyloid-β protein during induction", "setting": "amyloid-β protein; 1 μM amyloid beta protein co-treated with PEP 1 0.1, 1 and 10 μM, FIG. 16A", "result": "inhibited"}, {"measurement": "amyloid-β protein already induced for aggregation", "setting": "amyloid-β protein; FIG. 16B", "result": "underwent degradation"}, {"measurement": "cytokines involved in the inflammatory responses (qRT-PCR)", "setting": "cytokines", "result": "decreased noticeably"}, {"measurement": "Decreased NO Expression Level (%)", "setting": "nitric oxide (NO); [1]", "result": 65, "unit": "%"}, {"measurement": "NO Expression Level of control (%)", "setting": "nitric oxide (NO); [1]", "result": 35, "unit": "%"}, {"measurement": "NO level reduced to % of the control", "setting": "nitric oxide (NO); co-treatment with LPS", "result": 65, "unit": "%"}, {"measurement": "decrease of pro-inflammatory cytokine levels", "setting": "HMGB1, TNF-α and COX", "result": "more than 70%"}, {"measurement": "cell proliferation decreased by amyloid-β (BrdU)", "setting": "neural stem cells", "result": "restored"}]}
